How the values were obtained:
urethra [1] = test: Measurement of urethral pressure by drugs in pithed male rats, i.v.; format: in vivo, rat; design: key to urethral pressure: ↑: increase; (—): no effect; details: for urethral pressure / urethral pressure (increase): male pithed rats; for urethral pressure: class symbol; for intraurethral pressure: 1 mg/kg i.v.
Description: Male CD(SD)IGS rats (Charles River Japan Inc., 8-9 week-old in use) were anesthetized by intraperitoneal administration of sodium pentbarbital (50 mg/kg). After incision of cervical median, broncho cannula and arterial catheter were inserted. The measurement of blood pressure was started via arterial catheter and subsequently a stainless-steel rod was inserted into the spinal column through the orbit and foramen magnum for the destruction of the spinal cord. The broncho cannula was connected to the artificial breathing device for small animals (SN-480-7, Shinano, Tokyo, Japan) immediately and the animals were ventilated artificially with room air in a tidal volume of 6 mL/kg body weight at a rate of 70 breaths/min. After confirming the gentle decrease of blood pressure and stabilization of the blood pressure at the low level indicating a success of destruction of the spinal cord, intravenous catheter was inserted into femoral vein for drug administration. Urinary bladder was exposed by incision of hypogastrium median and urethra was tied off in the vicinity of pubic bone. Urethra catheter was inserted into urethra through dome of urinary bladder and fixed by ligation at the bladder neck. Urethra catheter was connected to the pressure transducer and urethral pressure was measured. Subsequently, urethral pressure was adjusted about 20 mmHg and left for about 1 hour. After it was confirmed stability of urethral pressure, and subsequently 10 μg/kg/0.5 ml phenylephrine was administrated and it was confirmed that urethral pressure increased. Various drugs included 18:3-LPA were estimated 0.5 ml/kg in the same way.

[2] = tested on: isolated prostatic preparations; test: Contractile test of isolated prostate, male rats (Magnus tube); format: cell-based; details: isolated male rat prostate
Source text: After sacrificing male CD(SD)IGS rats (Charles River Japan Inc., 8-9 week-old in use) by blowing heads and exsanguinating from jugular vein, prostate was isolated and soaked in iced Krebs-Henseleit solution (112 mmol/L NaCl, 5.9 mmol/L KCl, 2.0 mmol/L CaCl2, 1.2 mmol/L MgCl2, 1.2 mmol/L NaH2PO4, 25.0 mmol/L NaHCO3, 11.5 mmol/L glucose) immediately. Prostate was separated right-and-left part from isolated sample, fatty tissue was removed and longitudinal strips (2 to 3 strips) were isolated from a prostate lobe.
The made samples were suspended in the Magnus tube (volume: 10 mL) filled by Krebs-Henseleit solution (vented by 37±1° C., mixed gas [95% O2+5% CO2]). The samples were stabilized for 60 min and added about 0.5-1 g tension, and subsequently the contractile activity was recorded on recorder (linearcoder WR3320: GRAPHTEC CORP., thermal pen-writing recorder RJG-4128: Nihon Kohden Ltd) via a pressure amplifier (AP-641G, AP-601G: Nihon Kohden Ltd) from isometric transducer (Force displacement transducer) (FD pick-up TB-611T: Nihon Kohden Ltd). 0.01-10 μM phenylephrine was added in Magnus tube. The contraction by 10 μM phenylephrine is the contractile reaction of control. […] After the samples were suspended, it was washed over and over, opportunity. […]

colon and ileum = details: rats, literature; cited from earlier work
micturition = test: Cystometry in anesthetized female rats with intravenous infusion of LPA; format: in vivo, rat; details: infusion rate 15 mg/kg/hr/3 mL i.v.
Source text: Female CD(Sprague-Dawley)IGS rats (Charles River Japan Inc., 12 to 13 weeks old in use) were anesthetized with an s.c. administration of urethane (1.2 g/kg) and placed in a supine position and the bladder and proximal urethra were exposed through a midline abdominal incision. The ureters were tied with silk suture distally and cut. Bladder was exposed and a polyethylene catheter (JMS cutdown tube, C3) was inserted through the bladder dome and secured with a ligature. The other side of the catheter was connected to a pressure transducer through two T tubes to measure intravesical pressure. Another side of T tubes was connected to an infusion pump for performing cystometrograms (the other side of T tube was connected to a syringe). The carotid artery was cannulated to measure blood pressure and the jugular vein was cannulated to administration of the test compounds. Rats in which the above mentioned operation was performed were placed to 37° C. thermostat plate and citric acid solution (pH4.0) or saline were infused into bladder at the rate of 2.85 mL/hr. After cystometrograms show rhythmic reflex saline was infused via jugular vein at the infusion rate of 3 mL/kg/hr. After an appropriate time 18:3-LPA prepared with 5 mg/mL was infused at the infusion rate of 3 mL/kg/hr. After the 18:3-LPA infusion was stopped saline was infused again. […]

[3] = tested on: isolated urethral preparations; test: Measurement of urethra contraction, isolated female rat urethral preparations (Magnus tube); format: cell-based
Source text: After sacrificing female CD(SD)IGS rats (Charles River Japan Inc., 8-9 week-old in use) by blowing heads and exsanguinating from jugular vein, urethra under pubis was isolated carefully and soaked in Krebs-Henseleit solution (112 mmol/L NaCl, 5.9 mmol/L KCl, 2.0 mmol/L CaCl2, 1.2 mmol/L MgCl2, 1.2 mmol/L NaH2PO4, 25.0 mmol/L NaHCO3, 11.5 mmol/L glucose) immediately. Urethra part was cut from isolated sample, and was dissected in flat and subsequently was cut parallel to circular muscle. Thus, 2-3 strips of sample that are 3-4 mm long by 2-3 mm wide were made.
The made samples were suspended in the Magnus tube (volume: 10 mL) filled by Krebs-Henseleit solution (vented by 37±1° C., mixed gas [95% O2+5% CO2]). The samples were added about 0.5 g tension and stabilized for 60 min, and subsequently the contractile activity was recorded on recorder (linearcoder WR3320: GRAPHTEC CORP., thermal pen-writing recorder RJG-4128: Nihon Kohden Ltd) via a pressure amplifier (AP-641G, AP-601G, Nihon Kohden Ltd) from isometric transducer (Force displacement transducer) (FD pick-up TB-611T: Nihon Kohden Ltd).
The contractile reaction of control was given by stimulation of high concentration KCl solution (solution replaced all NaCl with KCl). By the addition of LPA and phenylephrine (comparison compound: α agonist) cumulatively, dose-dependency of urethra contraction was measured. […]

urethra [4] = test: Rat urethral pressure in vivo after intravenous compound A; details: male rats, 3 mg/kg i.v.
Source text: Male CD(SD)IGS rats (Charles River Japan Inc., 8-9 week-old in use) were anesthetized by subcutaneous administration of 1.2 g/kg urethane. After incision of cervical median, jugular vein catheter for administration of compound and arterial catheter for measurement of blood pressure were inserted. Subsequently, an incision in the hypogastrium median was made and urethra was tied off in the vicinity of pubic bone. Urethral catheter was inserted into urethra by cutting open dome of urinary bladder and fixed by ligation in of the bladder neck. Another end of urethral catheter was connected to the pressure transducer and urethral pressure was measured. Urethral pressure was adjusted about 20 mmHg and left at rest until it was stabilized (for about 20 minutes). Subsequently, compound A was administrated intravenously and blood pressure and urethral pressure were measured for 20 minutes, and then in order to monitor the base-line value of the intraurethral pressure 1 mL of pentobarbital was intraveniously injected. After the intraurethral pressure was decreased to the prolonged plateau, it was estimated as a base-line value. Compound A was administrated intraveniously (3 mg/kg, 1 mL/kg). Vehicle was confirmed as 10% DMSO-90% rat plasma solution. […]

EDG-2 = EDG-2 (Homo sapiens, UniProt Q92633); details: EDG-2 over-expressed cell, specification of WO01/60819; cited from earlier work
Chain of EDG-2 (Q92633 whole entry): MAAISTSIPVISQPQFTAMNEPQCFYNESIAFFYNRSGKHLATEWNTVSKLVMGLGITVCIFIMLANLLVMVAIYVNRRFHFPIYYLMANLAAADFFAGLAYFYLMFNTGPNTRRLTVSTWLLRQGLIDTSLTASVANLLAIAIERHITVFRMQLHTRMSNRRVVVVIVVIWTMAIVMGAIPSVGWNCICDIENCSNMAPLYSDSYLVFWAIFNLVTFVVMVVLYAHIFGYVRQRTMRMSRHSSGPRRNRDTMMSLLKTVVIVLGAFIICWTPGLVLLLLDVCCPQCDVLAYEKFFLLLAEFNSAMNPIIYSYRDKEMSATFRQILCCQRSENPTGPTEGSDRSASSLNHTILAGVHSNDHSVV

[5] = tested on: LPA dependent contraction in rat isolated urethra; test: Inhibitory activity for LPA dependent contraction in rat isolated urethra; format: cell-based; details: isolated male rat urethra, 10 μM LPA
Source text: Male CD(SD)IGS rats (Charles River Japan Inc., 8-9 week-old in use) anesthetized by diethyl ether were sacrificed by taking blood from the descending aorta, and subsequently urethra under pubis was isolated with urinary bladder and vesicular gland carefully and soaked in Krebs-Henseleit solution (112 mmol/L NaCl, 5.9 mmol/L KCl, 2.0 mmol/L CaCl2, 1.2 mmol/L MgCl2, 1.2 mmol/L NaH2PO4, 25.0 mmol/L NaHCO3, 11.5 mmol/L glucose) immediately. Urethra was cut from extracted sample and was dissected on the side of abdominal in flat with scissors for ophthalmic surgery. Thus, the strip of sample that are 3-4 mm long by 2-3 mm wide was made. […] The samples were added about 0.5 g tension and stabilized for 60 min, and subsequently the contractile activity was recorded on recorder (linearcoder WR3320: GRAPHTEC CORP., thermal pen-writing recorder RJG-4128: Nihon Kohden Ltd) via a pressure amplifier (AP-641G, AP-601G, Nihon Kohden Ltd) from Force displacement transducer (FD pick-up TB-611T: Nihon Kohden Ltd). […]
In other words, the isolated urethra was stimulated repeatedly by 10 μM LPA until a constant response was attained. […] Then the urethral contraction was monitored (post value). The inhibitory activity of compound A was calculated as the inhibition (%)={1-(post value)/(pre value)}×100. […]

Q: With `CC/C=C\C/C=C\C/C=C\CCCCCCCC(=O)OCC(O)CO` (centres unmarked) [1-monolinolenoyl (18:3)-glycerol] as the compound, how does the urethral pressure (urethra [1]; dose 1 mg/kg i.v.) read?
A: Its urethral pressure is “—”.

Q: And the intraurethral pressure (urethra [1]; pithed rat, in words)?
A: Its intraurethral pressure is “hardly increase”.

Q: With `CC/C=C\C/C=C\C/C=C\CCCCCCCC(=O)OC[C@@H](O)COP(=O)(O)O` [18:3-LPA, 1-Linolenoyl lysophosphatidic acid] as the compound, how does the “desensitization of prostate contraction” value [2] read?
A: The value was “desensitization was caused”.

Q: And the “contraction of isolated prostate” value ([2]; organ bath in vitro, FIG. 2)?
A: Its value is “contracts isolated urethra and prostate”.

Q: What about the “urethral pressure (increase)” value (urethra [1]; dose 10 μg/kg i.v.) of the same compound?
A: Its value is 3.0 mmHg.

Q: What about the “urethral pressure (increase)” value (urethra [1]; dose 100 μg/kg i.v.) of the same compound?
A: The value was 9.0 mmHg.

Q: What about the “urethral pressure (increase)” value (urethra [1]; dose 1 mg/kg i.v.) of the same compound?
A: Its value is 15.5 mmHg.

Q: What about the “intraurethral pressure, dose dependency” value (urethra [1]; pithed rat, intravenous injection, in words) of the same compound?
A: Its value is “increased the intraurethral pressure in a dose-dependent manner”.

Q: And the “activity for the contraction of colon and ileum” value (“activity for the contraction” for short) (colon and ileum)?
A: Its value is “most potent activity”.

Q: And the “micturition pressure versus infusion of saline” value (micturition)?
A: Its value is “increased”.

Q: And the “intercontraction interval versus saline infusion” value (micturition; FIG. 6)?
A: The value was “shorter”.

Q: What about the “desensitization of urethral contraction” value [3] of the same compound?
A: Its value is “desensitization was not caused”.

Q: What about the “intensity of contraction of urethra compared with phenylephrine” value ([3]; cumulative addition, FIG. 1) of the same compound?
A: The value was “more potent”.

Q: Which “activity for the contraction” value (colon and ileum) does the source give for `CCCCCCCCCCCCCCCC(=O)OCC(O)COP(=O)(O)O` (centres unmarked) [(16:0)-LPA, 1-palmitoyl lysophosphatidic acid] here?
A: Its value is “also have the activity”.

Q: Which “activity for the contraction” value (colon and ileum) does the source give for `CCCCC/C=C\C/C=C\CCCCCCCC(=O)OC[C@@H](O)COP(=O)(O)O` [(18:2)-LPA, 1-linoleoyl lysophosphatidic acid] here?
A: The value was “also have the activity”.

Q: For `CNC[C@H](O)c1cccc(O)c1` [L-phenylephrine], which “urethral pressure (increase)” value (urethra [1]; dose 10 μg/kg i.v.) is on record?
A: Its value is 7.5 mmHg.

Q: What does the source list for `CC/C=C\C/C=C\C/C=C\CCCCCCCC(=O)OC[C@@H](O)COP(=O)([O-])OCC[N+](C)(C)C` [LPC (18:3), 1-linolenoyl (18:3)-LPC (lysophosphatidyl choline)]?
A: urethral pressure (urethra [1]; dose 1 mg/kg i.v.): —; intraurethral pressure (urethra [1]; pithed rat, in words): hardly increase

Q: Which results are given for `COC(=O)CCSCc1ccc(-c2onc(C)c2NC(=O)OC(C)c2ccccc2Cl)cc1` (centres unmarked) [compound A, methyl 3-({4-[4-({[1-(2-chlorophenyl)ethoxy]carbonyl}amino)-3-methyl-5-isoxazolyl]benzyl}sulfanyl)propanoate]?
A: maximal amounts of the decreasing intraurethral pressure, of an absolute value (pressure before injection minus base-line value) (urethra [4]): about 50%; intraurethral pressure (urethra [4]; urethane anesthesia, versus vehicle, FIG. 5): greatly decreased; LPA receptor (EDG-2) antagonistic activity (EDG-2): potent EDG-2 antagonistic activity; IC50 ([5]; 0.5 h, 30 min incubation at 37° C., read-out: 50% inhibitory concentration (IC50) for urethral contraction by LPA): 70 nM; inhibition of urethral contraction by LPA ([5]; in words): inhibited the urethral contraction by LPA, dose-dependently

Source: US7288558B2, “Pharmaceutical composition for treatment for urinary diseases comprising LPA receptor regulator” (Ono Pharmaceuticals Co., Ltd., priority 2001, dated 2007)
